Test results published in patent US20050118658A1, “Use of ERRalpha phosphorylation status as a breast cancer biomarker” (priority 2003, published 2005).

Legend:
[1] = tested on: ER-stimulated ERE-regulated transcription in MCF-7 cells; assay: Transient transfection dual-luciferase assay of ERE-regulated transcription in MCF-7 cells; format: cell-based, human; conditions: 100 pM E2, 48 h, estrogen-free medium, ER-positive MCF-7 cells
Method: (A) MCF-7 and (B) BT-474 cells were co-transfected in parallel with the ERE(5×)-regulated and TATA dual-luciferase reporter gene sets along with ERRα1, ERRα1L413A/L418A, GRIP1 (glucocorticoid receptor interacting protein 1, SRC2) or empty parental expression plasmids as indicated. Transfected cells were incubated for 48 h in estrogen-free medium supplemented with ethanol, the solvent for the ligands, 100 pM E2, or 100 pM E2 plus 100 nM fulvestrant (ICI 182,780, faslodex) prior to being harvested for dual-luciferase assays. The results shown here are means±standard deviations from data obtained in one representative experiment performed in triplicate.
Plasmids pERE(5x)-ffLuc and pTATA-ffLuc, encoding firefly luciferase, and plasmid pTATA-srLuc, encoding renilla luciferase, were used as matched dual-luciferase reporter sets to assay ERE-regulated versus basal transcription along with an internal control. They were constructed by insertion via HindIII linkers of the nts −31 to +31 region of the herpes simplex virus thymidine kinase (HSV-TK) promoter into pGL3-Basic and phRG-B (Promega, Madison, Wis.), respectively. Plasmid pERE(5x)-ffLuc, containing five tandem copies of the consensus palindromic ERE, was then constructed by insertion into pTATA-fELuc of the oligodeoxynucleotides 5′-tcgag[…]gag[…]ctc[…] GACCTCTgcg[…]gcg[…]a-3′ (SEQ ID NO:1) and 5′-gatct[…]cgc[…]cgc[…] […]

[2] = target: T1, GST-ERRα1 1-376 (truncated GST-ERRα1 fusion protein) (UniProt P11474)
T1 sequence: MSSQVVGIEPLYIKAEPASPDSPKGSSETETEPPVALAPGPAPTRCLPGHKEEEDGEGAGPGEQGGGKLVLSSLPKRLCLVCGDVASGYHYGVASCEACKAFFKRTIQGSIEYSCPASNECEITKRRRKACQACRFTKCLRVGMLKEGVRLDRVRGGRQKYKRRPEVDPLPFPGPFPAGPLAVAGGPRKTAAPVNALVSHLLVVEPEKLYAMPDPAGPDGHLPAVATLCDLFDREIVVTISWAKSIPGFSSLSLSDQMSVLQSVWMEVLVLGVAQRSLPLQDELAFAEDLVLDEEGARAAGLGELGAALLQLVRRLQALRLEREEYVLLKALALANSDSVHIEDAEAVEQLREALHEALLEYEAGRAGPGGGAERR

[3] = tested on: GST-β-globin 1-123 fusion protein [GST: P08515]
GST-β-globin 1-123 fusion protein [GST: P08515], sequence (P08515 whole entry, looked up, the tested form may be a part): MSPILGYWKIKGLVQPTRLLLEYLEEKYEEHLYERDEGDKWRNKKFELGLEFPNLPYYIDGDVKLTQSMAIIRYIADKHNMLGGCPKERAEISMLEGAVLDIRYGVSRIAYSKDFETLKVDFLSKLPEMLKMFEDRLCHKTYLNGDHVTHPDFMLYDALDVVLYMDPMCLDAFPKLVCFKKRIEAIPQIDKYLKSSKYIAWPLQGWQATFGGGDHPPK

[4] = target: T2, GST-ERRα1 1-173 (truncated GST-ERRα1 fusion protein) (UniProt P11474)
T2 sequence: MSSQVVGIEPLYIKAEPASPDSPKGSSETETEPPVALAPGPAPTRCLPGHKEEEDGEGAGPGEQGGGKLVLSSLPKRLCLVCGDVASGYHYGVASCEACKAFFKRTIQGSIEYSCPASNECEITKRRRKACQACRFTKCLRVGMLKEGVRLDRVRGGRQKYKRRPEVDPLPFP

[5] = target: T3, GST-ERRα1 1-423 (full-length GST-ERRα1 fusion protein) (UniProt P11474)
T3 sequence: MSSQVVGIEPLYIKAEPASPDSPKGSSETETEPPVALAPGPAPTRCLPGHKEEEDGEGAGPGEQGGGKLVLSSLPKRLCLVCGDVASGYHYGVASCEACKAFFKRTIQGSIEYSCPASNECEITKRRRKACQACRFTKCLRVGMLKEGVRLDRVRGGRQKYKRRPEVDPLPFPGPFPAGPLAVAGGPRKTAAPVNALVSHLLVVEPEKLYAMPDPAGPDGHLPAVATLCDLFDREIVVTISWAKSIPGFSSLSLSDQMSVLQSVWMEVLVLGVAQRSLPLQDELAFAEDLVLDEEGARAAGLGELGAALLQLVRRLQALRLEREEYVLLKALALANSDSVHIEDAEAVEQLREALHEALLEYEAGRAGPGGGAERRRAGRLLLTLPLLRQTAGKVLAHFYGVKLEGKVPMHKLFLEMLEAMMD

[6] = tested on: PHAS-1 (phosphorylated heat and acid-stable protein regulated by insulin)
[7] = tested on: phosphorylated Akt (p-Akt); assay: Immunoblot analysis of phosphorylated versus total Akt in BT-474 cells; format: cell-based, human; conditions: 48 h, 20 μg/ml trastuzumab, 1 μM gefitinib, 20 μM U0126 or 20 μM LY294002
Method: (§1) BT-474 cells were co-transfected in parallel with the ERE(5x)-regulated and TATA dual-luciferase reporter gene sets along with the indicated expression plasmids. […] In panel (B), the cells were incubated for 48 h in estrogen-free medium supplemented with dimethyl sulfoxide as the drug vehicle control, 20 μM U0126 (MEK inhibitor), or 20 μM LY294002 (PI3K inhibitor) as indicated. After incubation for 48 h, the cells were harvested for dual-luciferase assays. Data were analyzed as described in the legend to FIG. 2. (C) Immunoblot analysis of protein extracts (20 μg per sample) prepared from BT-474 cells treated as in panels A and B above for luciferase activity. The membrane was probed with antibodies that react specifically with ERRα. Reactive proteins were visualized by enhanced chemiluminescence and autoradiography. (D) Immunoblot analysis as in panel C above, only the membrane was probed with antibodies that react specifically with phosphorylated Akt (p-Akt), total Akt, phosphorylated MAPK (p-MAPK) or total MAPK.
(§2) Proteins were extracted in Cell Lysis Buffer (Cell Signaling Technology, Beverly, Mass.) supplemented with Protease Inhibitor Cocktail Set III and Phosphatase Inhibitor Cocktail Set II (Calbiochem). Protein amounts were quantified with Coomassie Protein Assay Reagent (Pierce Biotechnology) with BSA as the standard. […] In FIG. 5D, the membrane was probed sequentially with p44/42 MAPK polyclonal antibody, phospho-specific p44/42 MAPK (Thr202/Tyr204) monoclonal antibody E10, Akt polyclonal antibody, and phospho-specific Akt (Ser473) polyclonal antibody (Cell Signaling Technology). Reacting material was detected using horseradish peroxidase-conjugated secondary antibodies (Jackson ImmunoResearch Laboratories, West Grove, Pa.) together with enhanced chemiluminescence (Amersham Pharmacia) and autoradiography.

[8] = tested on: ERRα1-mediated constitutive activation of ERE-regulated transcription in BT-474 cells; assay: Transient transfection dual-luciferase assay of ERRα1-mediated ERE-regulated transcription in BT-474 cells; format: cell-based, human
Method: as §1

[9] = tested on: ERRα; assay: Immunoblot analysis of ERRα expression in ERRα-transfected BT-474 cells; format: cell-based, human; conditions: BT-474 cells transfected with ERRα, 48 h; 20 μg/ml trastuzumab, 1 μM gefitinib, 20 μM U0126 or 20 μM LY294002
Method: as §1, §2

[10] = tested on: phosphorylated MAPK (p-MAPK); assay: Immunoblot analysis of phosphorylated versus total MAPK in BT-474 cells; format: cell-based, human; conditions: 48 h, 20 μg/ml trastuzumab, 1 μM gefitinib, 20 μM U0126 or 20 μM LY294002
Method: as §1, §2

[11] = target: Human ERRα1 containing a C-terminal 6×His tag, expressed and purified from E. coli, P11474

C[C@]12CC[C@@H]3c4ccc(O)cc4CC[C@H]3[C@@H]1CC[C@@H]2O [E2, 17β-estradiol]
induction of ERE-regulated transcription [1]: 19 fold

rat p42 MAPK2 (ERK2; Calbiochem) phosphorylated in vitro by a constitutively active MEK1 mutant
in vitro phosphorylation with [γ32P]-ATP, 12% SDS-PAGE and PhosphorImager [2]: MAPK phosphorylated each of the GST-ERRα1 fusion proteins, with more label being incorporated into GST-ERRα11-423 than into GST-ERRα11-376 and GST-ERRα11-173
in vitro phosphorylation with [γ32P]-ATP, 12% SDS-PAGE and PhosphorImager [3]: activated MAPK efficiently phosphorylated PHAS-1, but not GST-β-globin1-123
in vitro phosphorylation with [γ32P]-ATP, 12% SDS-PAGE and PhosphorImager [4]: MAPK phosphorylated each of the GST-ERRα1 fusion proteins, with more label being incorporated into GST-ERRα11-423 than into GST-ERRα11-376 and GST-ERRα11-173
in vitro phosphorylation with [γ32P]-ATP, 12% SDS-PAGE and PhosphorImager [5]: MAPK phosphorylated each of the GST-ERRα1 fusion proteins, with more label being incorporated into GST-ERRα11-423 than into GST-ERRα11-376 and GST-ERRα11-173
in vitro phosphorylation with [γ32P]-ATP, 12% SDS-PAGE and PhosphorImager [6]: activated MAPK efficiently phosphorylated PHAS-1, but not GST-β-globin1-123

N#CC(=C(/N)Sc1ccccc1N)/C(C#N)=C(\N)Sc1ccccc1N [U0126]
phosphorylation of Akt / PI3K/Akt pathway activation (immunoblot) [7]: without affecting Akt status
reduction in ERRα1's activator activity [8]: approximately 50%
ERRα expression (immunoblot) [9]: still expressed
phosphorylation of MAPK / MEK/MAPK pathway activation (immunoblot) [10]: inhibition of phosphorylation of MAPK

O=c1cc(N2CCOCC2)oc2c(-c3ccccc3)cccc12 [LY294002, 2-(4-morpholinyl)-8-phenyl-4H-1-benzopyran-4-one]
phosphorylation of Akt / PI3K/Akt pathway activation (immunoblot) [7]: inhibition of phosphorylation of Akt
ERRα expression (immunoblot) [9]: still expressed
phosphorylation of MAPK / MEK/MAPK pathway activation (immunoblot) [10]: without affecting MAPK status

B1: Human MAPK1 containing an N-terminal GST tag, activated with MEK1 (protein)
chain: MAAAAAQGGGGGEPRRTEGVGPGVPGEVEMVKGQPFDVGPRYTQLQYIGEGAYGMVSSAYDHVRKTRVAIKKISPFEHQTYCQRTLREIQILLRFRHENVIGIRDILRASTLEAMRDVYIVQDLMETDLYKLLKSQQLSNDHICYFLYQILRGLKYIHSANVLHRDLKPSNLLINTTCDLKICDFGLARIADPEHDHTGFLTEYVATRWYRAPEIMLNSKGYTKSIDIWSVGCILAEMLSNRPIFPGKHYLDQLNHILGILGSPSQEDLNCIINMKARNYLQSLPSKTKVAWAKLFPKSDSKALDLLDRMLTFNPNKRITVEEALAHPYLEQYYDPTDEPVAEEPFTFAMELDDLPKERLKELIFQETARFQPGVLEAP
in vitro phosphorylation with [γ-32P]-ATP, SDS-(4-12%) PAGE and autoradiography [11]: Each of the kinases tested was capable of phosphorylating ERRα in vitro

B2: Human Akt1 containing an N-terminal 6×His tag, lacking amino acids 1-117 (Pleckstrin Homology domain), serine 473 mutated to aspartic acid (protein)
chain: HHHHHHMDFRSGSPSDNSGAEEMEVSLAKPKHRVTMNEFEYLKLLGKGTFGKVILVKEKATGRYYAMKILKKEVIVAKDEVAHTLTENRVLQNSRHPFLTALKYSFQTHDRLCFVMEYANGGELFFHLSRERVFSEDRARFYGAEIVSALDYLHSEKNVVYRDLKLENLMLDKDGHIKITDFGLCKEGIKDGATMKTFCGTPEYLAPEVLEDNDYGRAVDWWGLGVVMYEMMCGRLPFYNQDHEKLFELILMEEIRFPRTLGPEAKSLLSGLLKKDPKQRLGGGSEDAKEIMQHRFFAGIVWQHVYEKKLSPPFKPQVTSETDTRYFDEEFTAQMITITPPDQDDSMECVDSERRPHFPQFDYSASGTA
in vitro phosphorylation with [γ-32P]-ATP, SDS-(4-12%) PAGE and autoradiography [11]: Each of the kinases tested was capable of phosphorylating ERRα in vitro

B3: Human Akt2 containing an N-terminal 6×His tag, lacking amino acids 1-117 (Pleckstrin Homology domain), serine 474 mutated to aspartic acid (protein)
chain: HHHHHHDPMDYKCGSPSDSSTTEEMEVAVSKARAKVTMNDFDYLKLLGKGTFGKVILVREKATGRYYAMKILRKEVIIAKDEVAHTVTESRVLQNTRHPFLTALKYAFQTHDRLCFVMEYANGGELFFHLSRERVFTEERARFYGAEIVSALEYLHSRDVVYRDIKLENLMLDKDGHIKITDFGLCKEGISDGATMKTFCGTPEYLAPEVLEDNDYGRAVDWWGLGVVMYEMMCGRLPFYNQDHERLFELILMEEIRFPRTLSPEAKSLLAGLLKKDPKQRLGGGPSDAKEVMEHRFFLSINWQDVVQKKLLPPFKPQVTSEVDTRYFDDEFTAQSITITPPDRYDSLGLLELDQRTHFPQFDYSASIRE
in vitro phosphorylation with [γ-32P]-ATP, SDS-(4-12%) PAGE and autoradiography [11]: Each of the kinases tested was capable of phosphorylating ERRα in vitro
